Reference: patent US9320803B2 (priority 2011, dated 2016)

Key:
[1] = pH 5.0; cited from earlier work
[2] = Acid cleavage study of compound 14 (HPLC); type: physicochemical; conditions: pH 3.8 (phosphoric acid added), after 5 min at room temperature, 300 μM, reverse phase HPLC
Method: 1 mL of a 300 μM solution of 14 in 50 mM sodium phosphate buffer was prepared and a 50 μL sample was analyzed by reverse phase HPLC (see FIG. 1A). To 400 μL of this solution was added 4 μL concentrated phosphoric acid resulting in a pH value of 3.8.

[3] = Binding studies to hydroxyapatite; conditions: pH 7.4, 37° C., 300 μM, hydroxyapatite 30 eq
Method: General procedure: In a falcon tube, the test compound was diluted in phosphate-buffer (4 mM Na2HPO4 containing 150 mM NaCl, pH 7.4) to obtain a solution with a concentration of 300 μM. Hydroxyapatite (30 eq) was added and the suspension was stirred well and incubated at 37° C. Another solution of the samples without hydroxyapatite was used as control. […] (4000 rpm, duration: 60 sec, Heraeus® Megafuge® 1.0) and the absorbance of the supernatant was measured with a spectrophotometer at a wavelength of 495 nm (ε495(doxorubicin)=10 650 M^−1 cm^−1). Each result represents the arithmetic average of three measurements and percent HA binding was calculated.

[4] = molecular target: T1, cathepsin B (Homo sapiens, UniProt P07858); test: Cleavage studies with cathepsin B (HPLC); type: biochemical
T1 construct: purchased Calbiochem, Germany
Method: For cleavage of 16 with cathepsin B, 150 μL of a 50 mM sodium acetate buffer containing 100 mM NaCl, 4 mM EDTA Na2 and 0.15 mg L-cysteine (pH 5.0). 6.7 μL cathepsin B solution (23.8 U/mg, from Calbiochem, Germany) were added to a 100 μL solution of 16 (300 μM in 50 mM sodium phosphate buffer, pH 7.0) and the solution incubated for 1 h at 37° C.
HPLC was carried out with a Symmetry300, C18, 5 μm (4.6×250 mm) HPLC using 15% acetonitrile and 85% 20 mM sodium phosphate buffer (pH 7.0) as mobile phase A and 30% acetonitrile and 70% 20 mM sodium phosphate buffer (pH 7.0) as mobile phase B. The gradient was 0 to 1.5 min 100% phase A, 1.5 to 20 min to 100% B, 20 min to 45 min 100% B, 45 to 55 min to 100% A. Flow 1 mL/min; injection volume: 50 μL.
A 176 μL stock solution of compound 23 [1.5 mM] was diluted with 9 μL cathepsin B (0.4 mg/mL, 23.8 U/mg, from Calbiochem, Germany) and 264 μL of buffer (50 mM sodium acetate, 100 mM NaCl, 4 mM EDTA, pH 5.0) containing L-cysteine (8 mM). The mixture was incubated at 37° C. and aliquots (65 μL) were taken after 0 min, 20 min, 40 min, 60 min and 120 min and analyzed by HPLC. […]

[5] = Binding studies to native bone matrix; design: species or system bovine; conditions: after 4 h, pH 7.4, 37° C., 300 μM, about 50 mg bone piece
Method: For this binding assay, bovine bone fragments were cut into small pieces (6 mm×4 mm×1 mm). The bone pieces were left untreated, washed with water (bidest.) and with absolute ethanol and dried over night at room temperature. Then, in a falcon tube the prodrugs were dissolved in phosphate-buffer (4 mM Na2HPO4 containing 150 mM NaCl, pH 7.4) to obtain a concentration of 300 μM. Approximately 50 mg of an untreated bone piece was added to the clear red solution, and the samples were incubated under stirring at 37° C. After 4 h, the samples were centrifuged (4000 rpm, duration: 60 sec, Heraeus® Megafuge® 1.0), and the absorbance of the supernatant was measured with a spectrophotometer at a wavelength of 495 nm (ε495(doxorubicin)=10650 M^−1 cm^−1). Percent bone binding was calculated

SMILES: COc1cccc2c1C(=O)c1c(O)c3c(c(O)c1C2=O)C[C@@](O)(/C(CO)=N/NC(=O)CCCCCN1C(=O)C=CC1=O)C[C@@H]3O[C@H]1C[C@H](N)[C@H](O)[C@H](C)O1 [DOXO-EMCH, 6-maleimidocaproylhydazone derivative of doxorubicin]
- acid-sensitive cleavage releasing doxorubicin [1]: cleavable at pH 5.0

SMILES: COc1cccc2c1C(=O)c1c(O)c3c(c(O)c1C2=O)C[C@@](O)(/C(CO)=N/NC(=O)CCCCCN1C(=O)CC(SCCCSCC(P(=O)(O)O)P(=O)(O)O)C1=O)C[C@@H]3OC1C[C@@H](N)[C@@H](O)[C@@H](C)O1 (stereo partly shown) [compound 14]
- cleavage to doxorubicin [2]: rapid cleavage to doxorubicin
- percent HA binding ([3]; after 5 h): ~80%
- percent HA binding ([3]; after one hour): approximately 50%

SMILES: COc1cccc2c1C(=O)c1c(O)c3c(c(O)c1C2=O)C[C@@](O)(C(=O)CO)CC3O[C@H]1C[C@H](NC(=O)OCc2ccc(NC(=O)C(CCCCN)NC(=O)C(Cc3ccccc3)NC(=O)CCCCCN3C(=O)CC(SCCCSCC(P(=O)(O)O)P(=O)(O)O)C3=O)cc2)[C@H](O)[C@H](C)O1 (stereo partly shown) [compound 16]
- cleavage to doxorubicin by cathepsin B ([4]; incubation 1 h at 37° C., buffer pH 5.0, reverse phase HPLC): complete cleavage to doxorubicin

SMILES: COc1cccc2c1C(=O)c1c(O)c3c(c(O)c1C2=O)C[C@@](O)(C(=O)CO)CC3O[C@H]1C[C@H](NC(=O)OCc2ccc(NC(=O)[C@H](C)NC(=O)[C@@H](NC(=O)CCCCCN3C(=O)CC(SCCCSCC(P(=O)(O)O)P(=O)(O)O)C3=O)C(C)C)cc2)[C@H](O)[C@H](C)O1 (stereo partly shown) [compound 23]
- cleavage to doxorubicin by cathepsin B ([4]; incubation 2 h at 37° C., pH 5.0, reversed phase HPLC): complete cleavage to doxorubicin
- percent HA binding ([3]; after 5 h): over 90%
- percent HA binding ([3]; after 24 h): ~100%
- percent HA binding ([3]; after one hour): approximately 50%

SMILES: COc1cccc2c1C(=O)c1c(O)c3c(c(O)c1C2=O)C[C@@](O)(C(=O)CO)C[C@@H]3O[C@H]1C[C@H](N)[C@H](O)[C@H](C)O1 [doxorubicin]
- percent bone binding [5]: no binding
